Source: ChEMBL document CHEMBL1136737, “Virtual screening for submicromolar leads of tRNA-guanine transglycosylase based on a new unexpected binding mode detected by crystal structure analysis” (J Med Chem, 2003)

Target: Queuine tRNA-ribosyltransferase (Zymomonas mobilis (strain ATCC 31821 / ZM4 / CP4), UniProt P28720)
Assay: Inhibitory activity against eubacterial tRNA guanine transglycosylase (TGT) from Zymomonas mobilis

Sequence of Queuine tRNA-ribosyltransferase (P28720 whole entry): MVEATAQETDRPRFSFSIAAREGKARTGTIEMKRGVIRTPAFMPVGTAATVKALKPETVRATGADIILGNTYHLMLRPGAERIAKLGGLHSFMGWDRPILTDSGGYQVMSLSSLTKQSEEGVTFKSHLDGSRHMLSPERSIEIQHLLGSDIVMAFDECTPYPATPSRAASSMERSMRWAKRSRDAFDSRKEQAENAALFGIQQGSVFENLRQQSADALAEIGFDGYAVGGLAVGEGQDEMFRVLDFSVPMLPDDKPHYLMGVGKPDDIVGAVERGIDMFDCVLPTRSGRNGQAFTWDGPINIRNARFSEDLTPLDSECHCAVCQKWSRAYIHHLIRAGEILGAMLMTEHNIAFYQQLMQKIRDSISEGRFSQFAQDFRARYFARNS

Row | Ki [µM] | Structure (SMILES)
1 | 0.25 | Cc1cnc2nc(N)nc(O)c2n1
2 | 8.1 | Nc1c2c(O)nc(O)cc2nn1CCO
3 | 156 | Cc1ccc2[nH]c3nnc(N)c-3cc2c1
4 | 4.7 | Cc1csc2c(O)c3c(=O)[nH][nH]c(=O)c3nc12
5 | 249 | Nc1[nH]nc2nc(-c3ccccc3)[nH]c(=O)c12
6 | 2.7 | Nc1nc(O)c2[nH]c(SCc3ccc(Cl)cc3)nc2n1
7 | 0.6 | Nc1nc2nccnc2c(=O)[nH]1 [PTERINE]
8 | 5 | O=c1[nH][nH]c(=O)c2c(O)c3sccc3nc12
9 | 200 | O=c1[nH][nH]c(=O)c2[nH]cnc12
10 | 37 | Nc1nc(O)c2[nH]c(N3CCCCC3)nc2n1
11 | 3.8 | Nc1nc2nc(-c3ccccc3)cnc2c(=O)[nH]1
12 | 72 | NNC(=O)c1cc2cc(F)ccc2[nH]1

Row | Structure (SMILES) | Ki [µM]
13 | Nc1cccc2c(=O)[nH][nH]c(=O)c12 | 36
